According to US20260265360A1, “USE OF ANTI-FAM19A5 ANTAGONISTS FOR TREATING HEARING DISORDERS” (NEURACLE SCIENCE CO., LTD., priority 2023, published 2026):

What was measured:
[1] = system: mouse primary spiral ganglion neurons; experiment: Reversal of FAM19A5-induced inhibition of neurite outgrowth; type: cell-based; settings: FAM19A5 protein 10 μM alone, treated 0 DIV, NF200 staining at 3 DIV
Procedure: Sprial ganglion neuron were cultured in culture media consisting of high-glucose (4.5 mg/mL) DMEM, 0.1 mg/ml penicillin, 0.1 mg/mL streptomycin, N2 supplement, and 10 µg/mL insulin and was designated here as “5K” because in this media, [K+]=5.4 mM. A depolarizing media, designated as “30K,” in which Na was replaced with equimolar K to raise [K] to 30 mM while maintaining osmolarity was also used.
Dissociated spiral ganglion cell cultures were prepared from postnatal day 4-5 (P4-5) cochleae and maintained using a procedure modified from the methods described by Bok et al., J Neurosci 23 (3): 777-87 (2003), which is incorporated herein by reference in its entirety. […]
Neurite outgrowth was quantified by measuring the total length of neurites per neuron. Neurons were stained with NF200 at either 2 or 3 DIV, and neurite lengths were measured using the Fiji (Image J). Individual neurons were manually selected, and neurite lengths were determined using the Simple Neurite Tracer plugin.
Briefly, mouse primary spiral ganglion neurons (cultured and processed as described in Example 11) were treated with a FAM19A5 protein (10 μM) alone or in combination with an anti-FAM19A5 antibody (1-30) (100 nM) at 0 DIV (day in vitro). […] Then, at 3 DIV, the neurons were stained for neurofilament protein (NF200) expression and the average neurite length quantified.

[2] = system: inner hair cells of mouse cochlear explant; experiment: Reversal of FAM19A5-induced inhibition of synaptogenesis (CtBP2 puncta); type: cell-based; settings: FAM19A5 protein 1 μM alone, treated 1 DIV, stained 2 DIV
Procedure: Cochlear explant were cultured in medium consisting of plating media, which consist of Neurobasal media (Invitrogen), 1% N2 supplement, and 10 μg/mL Ampicillin with culture media with additional 1% FBS.
Postnatal day 4-5 (P4-5) C57BL/6 mice were sacrificed for inner ear dissection. Mouse head was bisected, and brain tissue was removed. Cochlea was carefully separated the from the extraneous bones in ice-cold HBSS (5 mM HEPES/1.3 mM CaCl2), 0.9 mM MgCl2, pH 7.4) or External solution (1.2 mM CaCl2), 1 mM MgCl2, 5 mM HEPES in HBSS). Then the stria vascularis and spiral bone plate was removed, and cochlea was cut into two to three sections. […]
Mouse cochlear explant cultures were treated with FAM19A5, FAM19A5 combined with a FAM19A5 antagonist (e.g., described herein, e.g., 1-30 antibody), or a FAM19A5 antagonist (e.g., described herein, e.g., 1-30 antibody) alone at 1 DIV to determine the level of synaptogenesis at 2 DIV by immunostaining CtBP2, a ribbon synapse marker. To quantify the number of CtBP2 puncta of individual inner hair cells, z-stack confocal images were exported in “multi-page” and the number of CtBP2 puncta from each individual inner hair cells were measured using ROI manger and multi-point tool from Fiji (Image J). Number of CtBP2 puncta from five individual inner hair cells were counted per image and 3 z-stack images were measured from each treatment group. […]

Q: Which results are given for “FAM19A5 protein: FAM19A5 protein added to neuron and cochlear explant cultures to inhibit neurite outgrowth and synaptogenesis”?
A: total neurite length vs non-treated cells [1]: significantly reduced; number of CtBP2 puncta in inner hair cells vs control group [2]: significantly decreased
